Earlier results as cited in PubChem BioAssay AID1259409 (Chemical Carcinogenesis Research Information System (CCRIS), 2018).

Test system: rodent chemically induced tumor inhibition, incidence and multiplicity
Experiment: CCRIS tumor inhibitor studies
From the text: The CCRIS database contains chemical records with carcinogenicity, mutagenicity, tumor promotion, and tumor inhibition test results. It was developed by the National Cancer Institute (NCI). Data are derived from studies cited in primary journals, current awareness tools, NCI reports, and other sources. Test results have been reviewed by experts in carcinogenesis and mutagenesis.
CCRIS provides historical information from the years 1985 - 2011. It is no longer updated.
This is an archive assay for CCRIS tumor inhibitor studies.

NC(=O)c1cccnc1
tumour outcome (control, treated, inhibition, significance) (Carcinogen: N-NITROSOBIS(2-OXOPROPYL)AMINE, 60599-38-4, Dose [Inhibitor]: 0, 0.2% IN DRINKING WATER FOR 49 WK POST CARCINOGEN TREATMENT (STUDY DURATION: 52 WK), Route [Inhibitor]: ORAL, Species: HAMSTER, Strain/Sex: SYRIAN GOLDEN/FEMALE, Target Tissue: Type of Lesion: TRACHEA: PAPILLOMA, Dose [Carcinogen]: 10 MG/KG BW 1/WK FOR FIRST 3 WK OF STUDY DURATION, Promoter: NONE): 1/30 (3%), 0/29 (0%), 100%, not significant | tumour outcome (control, treated, inhibition, significance) (Carcinogen: N-NITROSOBIS(2-OXOPROPYL)AMINE, 60599-38-4, Dose [Inhibitor]: 0, 0.5% IN DRINKING WATER FOR 49 WK BEGINNING POST CARCINOGEN TREATMENT (STUDY DURATION: 52 WK), Route [Inhibitor]: ORAL, Species: HAMSTER, Strain/Sex: SYRIAN/FEMALE, Target Tissue: Type of Lesion: PANCREAS: ADENOCARCINOMA, Dose [Carcinogen]: 10 MG/KG 1/WK FOR 3 WK, Promoter: NONE): 18/30 (60%), 21/30 (70%), -17%, not significant | tumour outcome (control, treated, inhibition, significance) (Carcinogen: N-NITROSOBIS(2-OXOPROPYL)AMINE, 60599-38-4, Dose [Inhibitor]: 0, 0.5% IN DRINKING WATER FOR 49 WK POST CARCINOGEN TREATMENT (STUDY DURATION: 52 WK), Route [Inhibitor]: ORAL, Species: HAMSTER, Strain/Sex: SYRIAN GOLDEN/FEMALE, Target Tissue: Type of Lesion: KIDNEY: NEPHROBLASTOMA, Dose [Carcinogen]: 10 MG/KG BW 1/WK FOR FIRST 3 WK OF STUDY DURATION, Promoter: NONE): 2/30 (7%), 0/30 (0%), 100%, not significant | outcome (Carcinogen: N-NITROSOBIS(2-OXOPROPYL)AMINE, 60599-38-4, Dose [Inhibitor]: 0, 0.5% IN DRINKING WATER FOR 49 WK POST CARCINOGEN TREATMENT (STUDY DURATION: 52 WK), Route [Inhibitor]: ORAL, Species: HAMSTER, Strain/Sex: SYRIAN GOLDEN/FEMALE, Target Tissue: Type of Lesion: KIDNEY: RENAL CELL ADENOMA, Dose [Carcinogen]: 10 MG/KG BW 1/WK FOR FIRST 3 WK OF STUDY DURATION, Promoter: NONE): 0/30 (0%), 2/30 (7%), -100%, not significant | tumour outcome (control, treated, inhibition, significance) (Carcinogen: N-NITROSOBIS(2-OXOPROPYL)AMINE, 60599-38-4, Dose [Inhibitor]: 0, 0.5% IN DRINKING WATER FOR 49 WK POST CARCINOGEN TREATMENT (STUDY DURATION: 52 WK), Route [Inhibitor]: ORAL, Species: HAMSTER, Strain/Sex: SYRIAN GOLDEN/FEMALE, Target Tissue: Type of Lesion: KIDNEY: RENAL CELL CARCINOMA, Dose [Carcinogen]: 10 MG/KG BW 1/WK FOR FIRST 3 WK OF STUDY DURATION, Promoter: NONE): 1/30 (3%), 2/30 (7%), -133%, not significant | tumour outcome (control, treated, inhibition, significance) (Carcinogen: N-NITROSOBIS(2-OXOPROPYL)AMINE, 60599-38-4, Dose [Inhibitor]: 0, 0.5% IN DRINKING WATER FOR 49 WK POST CARCINOGEN TREATMENT (STUDY DURATION: 52 WK), Route [Inhibitor]: ORAL, Species: HAMSTER, Strain/Sex: SYRIAN GOLDEN/FEMALE, Target Tissue: Type of Lesion: LIVER: CHOLANGIOCELLULAR ADENOMA, Dose [Carcinogen]: 10 MG/KG BW 1/WK FOR FIRST 3 WK OF STUDY DURATION, Promoter: NONE): 1/30 (3%), 3/30 (10%), -233%, not significant | outcome (Carcinogen: N-NITROSOBIS(2-OXOPROPYL)AMINE, 60599-38-4, Dose [Inhibitor]: 0, 0.5% IN DRINKING WATER FOR 49 WK POST CARCINOGEN TREATMENT (STUDY DURATION: 52 WK), Route [Inhibitor]: ORAL, Species: HAMSTER, Strain/Sex: SYRIAN GOLDEN/FEMALE, Target Tissue: Type of Lesion: LIVER: CHOLANGIOCELLULAR CARCINOMA, Dose [Carcinogen]: 10 MG/KG BW 1/WK FOR FIRST 3 WK OF STUDY DURATION, Promoter: NONE): 0/30 (0%), 3/30 (10%), -%, not significant | outcome (Carcinogen: N-NITROSOBIS(2-OXOPROPYL)AMINE, 60599-38-4, Dose [Inhibitor]: 0, 0.5% IN DRINKING WATER FOR 49 WK POST CARCINOGEN TREATMENT (STUDY DURATION: 52 WK), Route [Inhibitor]: ORAL, Species: HAMSTER, Strain/Sex: SYRIAN GOLDEN/FEMALE, Target Tissue: Type of Lesion: LIVER: CYSTADENOMA, Dose [Carcinogen]: 10 MG/KG BW 1/WK FOR FIRST 3 WK OF STUDY DURATION, Promoter: NONE): 0/30 (0%), 2/30 (7%), -%, not significant | tumour outcome (control, treated, inhibition, significance) (Carcinogen: N-NITROSOBIS(2-OXOPROPYL)AMINE, 60599-38-4, Dose [Inhibitor]: 0, 0.5% IN DRINKING WATER FOR 49 WK POST CARCINOGEN TREATMENT (STUDY DURATION: 52 WK), Route [Inhibitor]: ORAL, Species: HAMSTER, Strain/Sex: SYRIAN GOLDEN/FEMALE, Target Tissue: Type of Lesion: LIVER: HEPATOCELLULAR ADENOMA, Dose [Carcinogen]: 10 MG/KG BW 1/WK FOR FIRST 3 WK OF STUDY DURATION, Promoter: NONE): 2/30 (7%), 4/30 (13%), -86%, not significant | tumour outcome (control, treated, inhibition, significance) (Carcinogen: N-NITROSOBIS(2-OXOPROPYL)AMINE, 60599-38-4, Dose [Inhibitor]: 0, 0.5% IN DRINKING WATER FOR 49 WK POST CARCINOGEN TREATMENT (STUDY DURATION: 52 WK), Route [Inhibitor]: ORAL, Species: HAMSTER, Strain/Sex: SYRIAN GOLDEN/FEMALE, Target Tissue: Type of Lesion: LIVER: HEPATOCELLULAR CARCINOMA, Dose [Carcinogen]: 10 MG/KG BW 1/WK FOR FIRST 3 WK OF STUDY DURATION, Promoter: NONE): 2/30 (7%), 2/30 (7%), 0%, not significant | tumour outcome (control, treated, inhibition, significance) (Carcinogen: N-NITROSOBIS(2-OXOPROPYL)AMINE, 60599-38-4, Dose [Inhibitor]: 0, 0.5% IN DRINKING WATER FOR 49 WK POST CARCINOGEN TREATMENT (STUDY DURATION: 52 WK), Route [Inhibitor]: ORAL, Species: HAMSTER, Strain/Sex: SYRIAN GOLDEN/FEMALE, Target Tissue: Type of Lesion: LUNG: ADENOCARCINOMA, Dose [Carcinogen]: 10 MG/KG BW 1/WK FOR FIRST 3 WK OF STUDY DURATION, Promoter: NONE): 11/30 (37%), 9/30 (30%), 19%, not significant | tumour outcome (control, treated, inhibition, significance) (Carcinogen: N-NITROSOBIS(2-OXOPROPYL)AMINE, 60599-38-4, Dose [Inhibitor]: 0, 0.5% IN DRINKING WATER FOR 49 WK POST CARCINOGEN TREATMENT (STUDY DURATION: 52 WK), Route [Inhibitor]: ORAL, Species: HAMSTER, Strain/Sex: SYRIAN GOLDEN/FEMALE, Target Tissue: Type of Lesion: LUNG: ADENOMA, Dose [Carcinogen]: 10 MG/KG BW 1/WK FOR FIRST 3 WK OF STUDY DURATION, Promoter: NONE): 15/30 (50%), 17/30 (56.7%), -13%, not significant | tumour outcome (control, treated, inhibition, significance) (Carcinogen: N-NITROSOBIS(2-OXOPROPYL)AMINE, 60599-38-4, Dose [Inhibitor]: 0, 0.5% IN DRINKING WATER FOR 49 WK POST CARCINOGEN TREATMENT (STUDY DURATION: 52 WK), Route [Inhibitor]: ORAL, Species: HAMSTER, Strain/Sex: SYRIAN GOLDEN/FEMALE, Target Tissue: Type of Lesion: LUNG: SQUAMOUS CELL CARCINOMA, Dose [Carcinogen]: 10 MG/KG BW 1/WK FOR FIRST 3 WK OF STUDY DURATION, Promoter: NONE): 2/30 (7%), 2/30 (7%), 0%, not significant | tumour outcome (control, treated, inhibition, significance) (Carcinogen: N-NITROSOBIS(2-OXOPROPYL)AMINE, 60599-38-4, Dose [Inhibitor]: 0, 0.5% IN DRINKING WATER FOR 49 WK POST CARCINOGEN TREATMENT (STUDY DURATION: 52 WK), Route [Inhibitor]: ORAL, Species: HAMSTER, Strain/Sex: SYRIAN GOLDEN/FEMALE, Target Tissue: Type of Lesion: PANCREAS (DUCTAL): ADENOCARCINOMA, Dose [Carcinogen]: 10 MG/KG BW 1/WK FOR FIRST 3 WK OF STUDY DURATION, Promoter: NONE): 18/30 (60%), 21/30 (70%), -17%, not significant | tumour outcome (control, treated, inhibition, significance) (Carcinogen: N-NITROSOBIS(2-OXOPROPYL)AMINE, 60599-38-4, Dose [Inhibitor]: 0, 0.5% IN DRINKING WATER FOR 49 WK POST CARCINOGEN TREATMENT (STUDY DURATION: 52 WK), Route [Inhibitor]: ORAL, Species: HAMSTER, Strain/Sex: SYRIAN GOLDEN/FEMALE, Target Tissue: Type of Lesion: THYROID: ADENOMA, Dose [Carcinogen]: 10 MG/KG BW 1/WK FOR FIRST 3 WK OF STUDY DURATION, Promoter: NONE): 1/30 (3%), 0/30 (0%), 100%, not significant | tumour outcome (control, treated, inhibition, significance) (Carcinogen: N-NITROSOBIS(2-OXOPROPYL)AMINE, 60599-38-4, Dose [Inhibitor]: 0, 350 MG/KG 10 MIN PRIOR TO AND 3 HR POST CARCINOGEN DOSE (STUDY DURATION: 52 WK), Route [Inhibitor]: INTRAPERITONEAL, Species: HAMSTER, Strain/Sex: SYRIAN/MALE, FEMALE, Target Tissue: Type of Lesion: PANCREAS: DUCTAL/DUCTULAR CARCINOMA, Dose [Carcinogen]: 10 MG/KG ONCE, Promoter: NONE USED): 5/60 (8%), 0/35 (0%), 100%, p<0.0001 | tumour outcome (control, treated, inhibition, significance) (Carcinogen: N-NITROSOBIS(2-OXOPROPYL)AMINE, 60599-38-4, Dose [Inhibitor]: 0, 350 MG/KG 10 MIN PRIOR TO AND 3 HR POST CARCINOGEN DOSE (STUDY DURATION: 52 WK), Route [Inhibitor]: INTRAPERITONEAL, Species: HAMSTER, Strain/Sex: SYRIAN/MALE, FEMALE, Target Tissue: Type of Lesion: PANCREAS: DUCTULAR ADENOMA, Dose [Carcinogen]: 10 MG/KG ONCE, Promoter: NONE USED): 25/60 (42%), 5/35 (14%), 67%, p=0.05 | tumour outcome (control, treated, inhibition, significance) (Carcinogen: URETHANE, 51-79-6, Dose [Inhibitor]: 1.0% (1.02 MG/G BW/D) IN POWDERED DIET FOR 10 D POST CARCINOGEN DOSE (STUDY DURATION: 5 MO), Route [Inhibitor]: ORAL, Species: MOUSE, Strain/Sex: ICR/FEMALE, Target Tissue: Type of Lesion: LUNG: TUMOR, Dose [Carcinogen]: 1 MG/G ONCE, Promoter: NONE USED): 27/31 (87%), 47/51 (92%), -6%, not calculated | tumour outcome (control, treated, inhibition, significance) (Carcinogen: URETHANE, 51-79-6, Dose [Inhibitor]: 2.5% (2.83 MG/G BW/D) IN POWDERED DIET FOR 10 D POST CARCINOGEN DOSE (STUDY DURATION: 5 MO), Route [Inhibitor]: ORAL, Species: MOUSE, Strain/Sex: ICR/FEMALE, Target Tissue: Type of Lesion: LUNG: TUMOR, Dose [Carcinogen]: 1 MG/G ONCE, Promoter: NONE USED): 27/31 (87%), 47/54 (87%), 0%, not calculated
